Experimental data reported in patent US20230181535A1, “UBIQUITIN-LIGASE INHIBITORS FOR THE TREATMENT OF CANCER” (FUNDACIÓN PROFESOR NOVOA SANTOS, priority 2020, published 2023).

Key:
LoVo cells = test: Immunofluorescence of E-cadherin, LoVo; assay type: cell-based; details: 48 h, vs DMSO
Experimental: (§1) For western blot analysis, cells were treated with the indicated inhibitors for 48 h and the whole cell extracts were obtained as described previously. Twenty micrograms of lysates were resolved on a 10% polyacrilamide SDS-PAGE followed by western blot analysis performed as previously described. For immunofluorescence assays cells were grown for 24 h on glass coverslips and treated with the indicated inhibitors for 48 h. Cells were fixed with 4% PFA for 15 min, permeabilized with 0.5% […] and incubated with E-cadherin antibody for 2 h. Coverslips were incubated with fluorescein-tagged secondary antibody (Dakopatts, Sweden) for […]. Finally coverslips were mounted with ProLong Gold antifade reagent (LifeTech, UK) and images were taken in epifluorescence microscope (Olympus) using 40× objective. […] One set of SIM Synthetic Focus images were taken in the DAPI channel for Hoechst 33342 staining, and another set of images were taken in the FITC channel for anti-E-cadherin-AlexaFluor488 labeling and analysed by Structured Illumination Microscopy (SIM™) platform to image the cells and Vala's CyteSeer® Cell-Cell Junction Algorithm to quantify the degree of expression and intracellular location of E-cadherin Vala's CyteSeer® Software can also measure relative DNA content by analyzing Total Integrated Intensity (TII) of the Nuclear Image (Ni) on the Nuclear Mask (Nm). […]

HT-29 cells [1] = test: Soft agar-colony formation assay, HT-29; assay type: cell-based, human; details: 28 days
Experimental: Soft agar-colony formation assay was performed on 12-well plates in triplicates at a density of 5×10^3 MDCK and MDCK-Hakai cells/well, or 12×10^3 HT29 cells/well. Cells were seeded in medium with 0.5% low-melting agarose over a layer with 0.75% low-melting agarose (Lonza Rockland, Me., USA). Cells were treated with the indicated inhibitors and DMSO was used as vehicle. Treatment was refreshed every 3 days and, after 21 days for MDCK and MDCK-Hakai cells or 28 days for HT29 cells, number of colonies were quantified. Quantification of five randomly-selected fields of each condition was photographed with a Nikon Eclipse-TI microscope (objective 4×). Experiments were conducted with three triplicates and were repeated three times. Data are represented as mean±SD.

tumour culture cells = test: In vitro antitumor effect (summary of cell assays); assay type: cell-based
Hakai-MDCK cells = test: Invasion assay, Hakai-MDCK; assay type: cell-based; details: treated 48 h
Experimental: (§2) For invasion assays, cells were treated with Hakin-1 or DMSO as vehicle for 48 h using 1% FBS during the last 24 hours. 3×10^5 MDCK, MDCK-Hakai or LoVo cells were seeded in a cell invasion chamber (Cell invasion assay kit, Chemicon International) containing medium with 2% FBS. After 72 hours for MDCK and MDCK-Hakai Invasive and 16 h for LoVo cells, invasive cells invaded that reach the lower chamber containing 30% FBS were fixed and stained with crystal violet (Sigma Aldrich, St Louis, Mo.) following the manufacturer's specifications. For migration assays, HT29 cells were cultured with Hakin-1 or DMSO as vehicle for 48 h, using medium without serum the last 24 h. In the cell migration chamber were seeded 3×10^5 HT29 cells (Cell migration kit, Millipore, Bedford, Mass.) containing medium without serum. After 16 h, migrated cells in the lower chamber containing serum with 30% FBS were stained with crystal violet and counted following the manufacturer's specifications. For both invasion and migration assays cells were counted in five fields photographed with an Olympus microscope using a 20× objective, experiments were performed in triplicates for each condition and the assays were repeated at least three times. Results are expressed as mean±SD.

HT-29 cells [2] = test: Western blotting of EMT markers, HT-29; assay type: cell-based, human; details: HT-29; 48 h
Experimental: For western blot analysis, cells were treated with the indicated inhibitors for 48 h and the whole cell extracts were obtained as described previously. Twenty micrograms of lysates were resolved on a 10% polyacrilamide SDS-PAGE followed by western blot analysis performed as previously described. For immunofluorescence assays cells were grown for 24 h on glass coverslips and treated with the indicated inhibitors for 48 h. Cells were fixed with 4% PFA for 15 min, permeabilized with 0.5% […] and incubated with E-cadherin antibody for 2 h. Coverslips were incubated with fluorescein-tagged secondary antibody (Dakopatts, Sweden) for […]. Finally coverslips were mounted with ProLong Gold antifade reagent (LifeTech, UK) and images were taken in epifluorescence microscope (Olympus) using 40× objective. Immunofluorescence of E-cadherin and DNA content analysis for FIGS. 22-23 were performed culturing of HT-29 human colorectal adenocarcinoma cell line in 384-well plates with densities of 3,000 cells per well in a total volume of 25 μl. After the completion of the staining, four images (2×2 array) of each well were taken with Vala Sciences' SIM™ with a 20× objective. Each image was acquired as a SIM Synthetic Focus with a z-stack range of 6 μm with 1 μm steps. The SIM Synthetic Focus feature will compile a “best focus” images from multiple images. One set of SIM Synthetic Focus images were taken in the DAPI channel for Hoechst 33342 staining, and another set of images were taken in the FITC channel for anti-E-cadherin-AlexaFluor488 labeling and analysed by Structured Illumination Microscopy (SIM™) platform to image the cells and Vala's CyteSeer® Cell-Cell Junction Algorithm to quantify the degree of expression and intracellular location of E-cadherin Vala's CyteSeer® Software can also measure relative DNA content by analyzing Total Integrated Intensity (TII) of the Nuclear Image (Ni) on the Nuclear Mask (Nm). This analysis was performed by Vala Science. Twenty compounds from were assayed in a “blinded” manner, at 2 test concentrations in 6 replicate wells for first assay and 3 replicate for second assay.

[3] = tested on: mesenchymal Hakai-MDCK cells; test: E-cadherin protein levels in Hakai-MDCK cells; assay type: cell-based; details: Hakai-MDCK cells (no basal E-cadherin)
Experimental: as §1

HT29 cells = test: Migration assay, HT29; assay type: cell-based, human; details: HT-29; treated 48 h
Experimental: as §2

`O=C(O)c1ccc(-n2nnnc2SCC(=O)c2ccc([N+](=O)[O-])cc2)cc1` [Hakin-1, 4-(5-[2-(4-nitrophenyl)-2-oxoethyl]thiol-1H-tetrazol-1-yl)benzoic acid] was tested, and the “E-cadherin levels at cell-cell contacts (immunofluorescence)” value (LoVo cells) was “significant increase E-cadherin levels at cell-cell contacts”, the “colony formation in soft agar” value (HT-29 cells [1]) was “robust inhibition of colony formation” and the “concentration at which the in vitro antitumor effect was observed” value (tumour culture cells) was 100 to 200 µM. For the same compound, the cell invasion (Hakai-MDCK cells) was “decreased cell invasion”, the “Cortactin expression levels (western blotting)” value (HT-29 cells [2]) was “increase expression levels” and the “E-cadherin levels (western blotting)” value (HT-29 cells [2]) was “increase E-cadherin levels”. For the same compound, the “Vimentin mesenchymal marker (western blotting)” value (HT-29 cells [2]) was “reduced”, the E-cadherin protein levels [3] was “no recovery was detected” and the cell migration (HT29 cells) was “important reduction of cell migration”.
